According to patent US20230399312A1, “SUBSTITUTED PYRIMIDINES AND METHODS OF USE” (THERAVANCE BIOPHARMA R&D IP, LLC, priority 2020, published 2023):

Experiments:
[1] = target: T1, recombinant human ALK5 (TGF-βR1) protein (Homo sapiens, UniProt P36897); assay: Biochemical ALK5 (TGF-βR1) assay to measure pKi (LANCE Ultra ULight kinase assay); conditions: apparent pKi, converted from pIC50 by Cheng-Prusoff
T1 construct: purchased Life Technologies PR9075A
T1 sequence (P36897 34-503): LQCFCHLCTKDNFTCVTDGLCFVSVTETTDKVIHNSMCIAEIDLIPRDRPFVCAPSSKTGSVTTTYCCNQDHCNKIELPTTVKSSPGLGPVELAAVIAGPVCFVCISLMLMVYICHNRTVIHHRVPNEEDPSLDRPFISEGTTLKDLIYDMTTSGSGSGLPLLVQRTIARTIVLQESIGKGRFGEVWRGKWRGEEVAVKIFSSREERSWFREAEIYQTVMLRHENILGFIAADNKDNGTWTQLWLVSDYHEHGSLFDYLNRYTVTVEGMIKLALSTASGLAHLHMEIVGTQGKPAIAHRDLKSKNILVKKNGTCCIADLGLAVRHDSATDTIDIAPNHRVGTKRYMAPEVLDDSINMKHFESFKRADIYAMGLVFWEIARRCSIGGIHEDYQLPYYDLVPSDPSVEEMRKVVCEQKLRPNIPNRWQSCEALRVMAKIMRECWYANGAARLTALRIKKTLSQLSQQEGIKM
Method in brief: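 Enzyme was preincubated with compound for 60 min at room temperature, then ATP (added from a 125 μM 5× stock with 2 mM DTT) started a 60 min reaction at 37 °C. EDTA plus Eu-anti-phospho-Topo2α (Thr1342) antibody stopped it; TR-FRET pIC50 values were converted to pKi by Cheng-Prusoff.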

[2] = tested on: TGF-β-stimulated SMAD3 phosphorylation in BEAS-2B cells; assay: Cellular ALK5 potency assay, inhibition of TGF-β stimulated pSMAD3 formation in BEAS-2B cells; assay type: cell-based; conditions: Homo sapiens, pSMAD3, TGF-β 10 ng/mL, read-out: BEAS2B pIC50 (converted)
Method in brief: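 Cells were seeded overnight, rinsed into HEPES/BSA-supplemented HBSS, and dosed with serially diluted compound for 1 h at 37 °C, 5% CO2. TGF-β stimulation (10 ng/mL final) followed for 30 min, then lysis and AlphaLISA pSMAD3 measurement; potency reported as pIC50.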

SMILES	Ki [1] [nM]	IC50 [2] [nM]
Cc1cccc(-c2nccc(Nc3ccnc(Nc4cccc(CN5CC6CCC(C5)N6)c4)n3)n2)n1 [Compound 332, N2-[3-(3,8-diazabicyclo[3.2.1]octan-3-ylmethyl)phenyl]-N4-[2-(6-methyl-2-pyridyl)pyrimidin-4-yl]pyrimidine-2,4-diamine]	0.0398 to 0.316	25.1 to 158
Cc1cccc(-c2nccc(Nc3ccnc(Nc4cccc(NC(=O)C5CNC5)c4)n3)n2)n1 [Compound 154, N-[3-[[4-[[2-(6-methyl-2-pyridyl)pyrimidin-4-yl]amino]pyrimidin-2-yl]amino]phenyl]azetidine-3-carboxamide]	0.0398 to 0.316	25.1 to 158
Cc1cccc(-c2nccc(Nc3ccnc(Nc4cccc(CN5C6CCC5CNC6)c4)n3)n2)n1 [Compound 424, N2-[3-(3,8-diazabicyclo[3.2.1]octan-8-ylmethyl)phenyl]-N4-[2-(6-methyl-2-pyridyl)pyrimidin-4-yl]pyrimidine-2,4-diamine]	0.0398 to 0.316	25.1 to 158
Cc1cccc(-c2nccc(Nc3ccnc(Nc4nc(C)cs4)n3)n2)n1 [Compound 226, N4-[2-(6-methyl-2-pyridyl)pyrimidin-4-yl]-N2-(4-methylthiazol-2-yl)pyrimidine-2,4-diamine]	3.98 to 31.6	25.1 to 158
Cc1cccc(-c2nccc(Nc3ccnc(Nc4nc(CN5C[C@@H](C)N[C@@H](C)C5)cs4)n3)n2)n1 [Compound 391, N4-[2-(6-methyl-2-pyridyl)pyrimidin-4-yl]-N2-[4-[[rac-(3R,5S)-3,5-dimethylpiperazin-1-yl]methyl]thiazol-2-yl]pyrimidine-2,4-diamine]	0.398 to 3.16	25.1 to 158
Cc1cccc(-c2nccc(Nc3ccnc(Nc4ccc(CN5CC(C(=O)O[C@@H]6CCNC6)C5)cc4)n3)n2)n1 [Compound 152, [(3R)-pyrrolidin-3-yl] 1-[[4-[[4-[[2-(6-methyl-2-pyridyl)pyrimidin-4-yl]amino]pyrimidin-2-yl]amino]phenyl]methyl] azetidine-3-carboxylate]	0.0398 to 0.316	25.1 to 158
COCCOc1ccc(Nc2nccc(Nc3ccnc(-c4cccc(C)n4)n3)n2)cc1 [Compound 250, N2-[4-(2-methoxyethoxy)phenyl]-N4-[2-(6-methyl-2-pyridyl)pyrimidin-4-yl]pyrimidine-2,4-diamine]	0.398 to 3.16	25.1 to 158

Second part, led by results:

Ki [1] [nM]	SMILES	IC50 [2] [nM]
0.0398 to 0.316	Cc1cccc(-c2nccc(Nc3ccnc(Nc4ccc(S(N)(=O)=O)cc4)n3)n2)n1 [Compound 108, 4-((4-((2-(6-methylpyridin-2-yl)pyrimidin-4-yl)amino)pyrimidin-2-yl)amino)benzenesulfonamide]	25.1 to 158
0.398 to 3.16	Cc1cccc(-c2nccc(Nc3ccnc(Nc4ncc(C5=CCNC5)s4)n3)n2)n1 [Compound 609, N2-[5-(2,5-dihydro-1H-pyrrol-3-yl)thiazol-2-yl]-N4-[2-(6-methyl-2-pyridyl)pyrimidin-4-yl]pyrimidine-2,4-diamine]	25.1 to 158
0.0398 to 0.316	Cc1cccc(-c2nccc(Nc3ccnc(Nc4ccc(C(=O)OC[C@@H]5CCNC5)nc4)n3)n2)n1 [Compound 584, [(3R)-pyrrolidin-3-yl]methyl 5-[[4-[[2-(6-methyl-2-pyridyl)pyrimidin-4-yl]amino]pyrimidin-2-yl]amino]pyridine-2-carboxylate]	25.1 to 158
0.0398 to 0.316	Fc1ccc(Cl)cc1-c1nccc(Nc2ccnc(Nc3ccc(N4CCNCC4)cc3)n2)n1 [Compound 398, N4-[2-(5-chloro-2-fluoro-phenyl)pyrimidin-4-yl]-N2-(4-piperazin-1-ylphenyl)pyrimidine-2,4-diamine]	25.1 to 158
0.0398 to 0.316	Cc1cccc(-c2nccc(Nc3ccnc(Nc4ccc(CN5CC(O)C5)cc4)n3)n2)n1 [Compound 131, 1-[[4-[[4-[[2-(6-methyl-2-pyridyl)pyrimidin-4-yl]amino]pyrimidin-2-yl]amino]phenyl]methyl] azetidin-3-ol]	25.1 to 158
